# Experimental data published in US12398139B2, “Modulators of AMPA receptor signaling” (Centre for Addiction and Mental Health, priority 2019, dated 2025).
# What was measured:
# [1] = tested on: HEK-293 cells expressing GAPDH and GluR2; assay: AMPA mediated cell-death assay (CellTox Green Cytotoxicity Assay); format: cell-based; settings: Homo sapiens, HEK293, AMPA 500 μM, CTZ 100 μM, CellTox Green fluorescence, read-out: Potency, inhibition of AMPA-mediated neurotoxicity (IC50, concentration at which 50% of cell death was prevented)
# Protocol: The ability of compounds to inhibit AMPA-mediated neurotoxicity was determined using the CellTox™ Green Cytotoxicity Assay (G8743) kit from Promega. In this assay, GAPDH and GluR2 are expressed in HEK-293 cells. AMPA (500 μM) was added to induce an AMPAR-mediated cell death signalling cascade. This is initiated by the GAPDH-GluR2 complex formation followed by the nuclear translocation of the complex, where it activates the p53-mediated cell death pathway. The presence of a compound which can block dimerization of GAPDH and GluR2 will prevent the nuclear translocation and the cell death and, thus this assay is an effective measure of the ability of a compound to prevent AMPA-mediated neurotoxicity and thus show therapeutic benefit in the treatment of MS.
# The assay was performed as per the manufacture's instruction. Briefly, 293 cells stably expressing GluR1 and GluR2VENUS were transfected with pcDNA-RluC-GAPDH. AMPA (500 μM) were added to induce the cell death. CTZ (100 μM) was added to prevent AMPAR desensitization. Candidate molecules were added before the AMPA treatment to test its protective effect. Untreated cells and AMPA treated group were used as negative and positive control respectively. CellTox™ Green Reagent (˜5×) was then added to achieve a final concentration of 1× and cells were incubated at room temperature for 15 minutes (shielded from ambient light). The fluorescence intensity at 485-500 nmEx/520-530 nmEm was then measured and calculated as the percentage value of the positive control. The concentration at which 50% of cell death was prevented (IC50) was determined for each compound.
# The potency was measured using the cell death assay described above.
# [2] = molecular target: T1, GluR2/GAPDH complex (Homo sapiens, UniProt P42262); assay: Surface plasmon resonance target engagement assay (competitive GluR2-Venus affinity with GAPDH); settings: SPR, captured GluR2-VENUS, 100 nM GAPDH peptide, compound top concentration 10 μM; read-out: Potency, GluR2 Binding Affinity (competitive inhibition of GluR2-GAPDH interaction)
# T1 construct: host or cells: HEK293 cells stably transfected with GluR2-VENUS (lysate)
# T1 sequence (P42262 25-883, species assumed, one chain of several): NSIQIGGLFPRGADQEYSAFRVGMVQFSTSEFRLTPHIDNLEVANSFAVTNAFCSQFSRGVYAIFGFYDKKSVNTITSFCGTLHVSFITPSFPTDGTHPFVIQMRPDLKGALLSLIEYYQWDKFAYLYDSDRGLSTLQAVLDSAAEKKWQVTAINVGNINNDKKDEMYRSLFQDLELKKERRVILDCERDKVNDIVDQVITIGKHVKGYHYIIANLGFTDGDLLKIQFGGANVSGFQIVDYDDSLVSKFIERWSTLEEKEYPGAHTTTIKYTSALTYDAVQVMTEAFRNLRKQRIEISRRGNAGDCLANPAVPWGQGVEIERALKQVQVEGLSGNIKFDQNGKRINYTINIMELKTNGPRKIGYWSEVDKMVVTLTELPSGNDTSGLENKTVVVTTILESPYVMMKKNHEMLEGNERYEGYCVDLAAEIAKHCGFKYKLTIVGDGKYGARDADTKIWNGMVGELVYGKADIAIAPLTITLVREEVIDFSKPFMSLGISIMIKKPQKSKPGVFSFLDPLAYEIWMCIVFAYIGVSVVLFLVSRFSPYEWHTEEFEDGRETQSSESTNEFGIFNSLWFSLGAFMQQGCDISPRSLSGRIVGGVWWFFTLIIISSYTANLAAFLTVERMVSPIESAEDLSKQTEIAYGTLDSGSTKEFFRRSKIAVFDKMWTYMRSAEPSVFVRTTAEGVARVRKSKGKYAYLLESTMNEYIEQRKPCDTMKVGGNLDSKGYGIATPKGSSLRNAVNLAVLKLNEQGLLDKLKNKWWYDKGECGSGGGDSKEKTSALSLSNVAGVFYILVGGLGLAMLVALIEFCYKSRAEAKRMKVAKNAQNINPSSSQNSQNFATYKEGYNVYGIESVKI
# Protocol: This is one of the most commonly used techniques to study modulation of protein-protein interactions by small molecule ligands, providing real-time measurement of binding affinities and association/dissociation kinetics of complexes (compound/protein) in a label-free environment. The ability of our lead compound to disrupt the interaction of GluR2/GAPDH complex was measured by the binding affinity. Compounds were analyzed for competitive GluR2-Venus protein affinity (with GAPDH recombinant protein) using a Reichert 2SPR system. The surface was first charged with nickel (500 μM NiCl2 in HBS-P buffer for 300 s at a flow rate of 5 μL/min). The dextran surface was then activated with a 1:1 mixture of N-ethyl-N-dimethylaminopropylcarbodiimide (EDC) and N-hydroxysuccinimide (NHS) on line for final concentrations of EDC and NHS of 37.5 mg/mL and 5.8 mg/mL, respectively, for 420 s at a flow rate of 25 μL/min. Anti-VENUS antibody was first immobilized by capture onto a 500 KDa CM Dextran sensor chip (Reichert), proceeded by activation of the carboxymethylated dextran surface for mild amine coupling, followed by a final blocking injection of 1 M ethanolamine, pH 8.5. GluR2-VENUS (lysate of HEK293 cells stably transfected with GluR2-VENUS) was then captured for 900 s at a flow rate of 25 μL/min followed by a final blocking injection of 2% BSA, for 300 s at a flow rate of 5 μL/min.
# The surface plasmon resonance affinity assay was carried out in a PBS buffer consisting of 0.05% Tween 20. For affinity measurements, compound solutions were prepared using ten three-fold serial dilutions in running buffer from a 10 μM top concentration (prepared from DMSO stocks) along with a zero (running buffer) control, mixed with 100 nM GAPDH peptide (Sigma Aldrich). A flow rate of 30 μl/min was used with a 420 s contact time (using high performance injection parameters) followed by a 120 s dissociation phase. Results were analyzed by subtracting the signals of the reference surface from the signals for the protein-bound surfaces and performing a solvent correction. Competitive binding responses were normalized throughout the screen to the percentage of inhibition of the respective small molecule compound. Three independent experiments were performed.
# The binding affinity was measured using the surface plasmon resonance assay described above.
# [3] = tested on: EAE mice; assay: Experimental autoimmune encephalomyelitis (EAE) model for multiple sclerosis; format: in vivo, mice (C57BL/6)
# [4] = Human liver microsomal stability assay; format: in vitro ADME; settings: both sexes, pooled human liver microsomes, pH 7.4; human liver microsomes 0.5 mg/mL, 3 μM compound, NADPH, 37° C., 45 min; read-out: T1/2, human liver microsomal stability
# Protocol: (§1) Metabolic stability of 2-pyrrolopyrazoles derivatives was measured by determination of the rate of compound disappearance when incubated in the presence of human or rat liver microsomes. Liver microsomes are prepared from the endoplasmic reticulum of hepatocytes and are the primary source of the most important enzymes (cytochrome P450) involved in drug metabolism. Study of drug stability in the presence of liver microsomes is accepted as a valuable model permitting rapid prediction of in vivo drug stability.
# (§2) Human or rat liver microsomes were obtained from a commercial source. Test compounds (3 μM) were incubated with pooled liver microsomes (male and female). Samples were incubated for a 45 minute period and removed at 5 time points and test compounds were analyzed by LC-MS/MS
# (§3) Microsomes (final protein concentration 0.5 mg/mL), 0.1 M phosphate buffer pH 7.4, and test compound (final concentration 3 μM; diluted from 10 mM stock solution to give a final DMSO concentration of 0.25%) were incubated at 37° C. prior to the addition of NADPH (final concentration 1 mM) to initiate the reaction. The final incubation volume was 25 μL. A control incubation was included for each compound tested, where 0.1 M phosphate buffer pH 7.4 was added instead of NADPH. The control compounds testosterone and 7-hydroxycoumarin were included in each experiment and all incubations were performed singularly for each compound.
# (§4) Each compound was incubated for 0, 5, 15, 30, and 45 minutes. The control (minus NADPH) was incubated for 45 minutes only. The reactions were stopped by the addition of 50 μL methanol containing internal standard at the appropriate time points. The incubation plates were centrifuged at 2500 rpm for 20 minutes at 4° C. to precipitate the protein.
# (§5) Following protein precipitation, the sample supernatants were combined in cassettes of up to 4 compounds and analysed using standard LC-MS/MS conditions.
# (§6) From a plot of the natural logarithm of the peak area ratio (i.e., the ratio of compound peak area: internal standard peak area) against time, the gradient of the line was determined. Subsequently, half-life and intrinsic clearance were calculated using the equations below: Eliminated rate constant (k)=(−gradient). Half-life (t1/2) (min)=[…]. Intrinsic Clearance (CLint) (μL/min/[…])=(V×0.693)/t1/2. wherein V=Incubation volume (μL/mg microsomal protein).
# (§7) Biological half-life values (t1/2) were determined for several 2-pyrrolopyrazoles, as well as the closely-related reference 1-pyrrolopyrazole, using the human liver microsomal stability assay described above.
# [5] = Rat liver microsomal stability assay; format: in vitro ADME; settings: both sexes, pooled rat liver microsomes, pH 7.4; rat liver microsomes 0.5 mg/mL, 3 μM compound, NADPH, 37° C., 45 min; read-out: T1/2, rat liver microsomal stability
# Protocol: as §1, §2, §3, §4, §5, §6, §7
SMILES,IC50 [2],half-life at 3 μM [4],half-life at 3 μM [5],IC50 [1],"mean clinical score compared with the no treatment group ([3]; 5 or 10 mg/kg i.p. daily from day 11~12, two-way ANOVA at least P<0.05)",neurological function ([3]; i.p. administration from day 11~12 after immunization (1~2 days after symptoms))
"CN(C)C(=O)c1ccnc(N2Cc3cn(Cc4ccc(F)cc4)nc3C2)n1 [Compound 210, 2-(2-(4-Fluorobenzyl)-2,6-dihydropyrrolo[3,4-c]pyrazol-5(4H)-yl)-N,N-dimethylpyrimidine-4-carboxamide]",33 nM,749 min,–,82 nM,–,–
"O=C(NC1CCCCC1)c1cccc(N2Cc3cn(Cc4ccc(F)cc4)nc3C2)c1 [Compound 216, N-Cyclohexyl-3-(2-(4-fluorobenzyl)-2,6-dihydropyrrolo[3,4-c]pyrazol-5(4H)-yl)benzamide]",91 nM,> 1000 min,–,57 nM,–,–
"O=C(c1cccc(N2Cc3cn(Cc4ccc(F)cc4)nc3C2)c1)N1CCCCC1 [Compound 242, (3-(2-(4-Fluorobenzyl)-2,6-dihydropyrrolo[3,4-c]pyrazol-5(4H)-yl)phenyl)(piperidin-1-yl)methanone]",8 nM,–,14 min,79 nM,–,–
"CN(C)C(=O)c1cccc(N2Cc3cn(CC4CC4)nc3C2)c1 [Compound 247, 3-(2-(Cyclopropylmethyl)-2,6-dihydropyrrolo[3,4-c]pyrazol-5(4H)-yl)-N,N-dimethylbenzamide]",148 nM,–,–,36 nM,–,–
"CN(C)C(=O)c1cncc(N2Cc3cnn(Cc4ccc(F)cc4)c3C2)n1 [REF, reference compound]",> 1000 nM,–,–,200 nM,–,–

# Continued, in another order:
IC50 [2],half-life at 3 μM [4],half-life at 3 μM [5],SMILES,IC50 [1],"mean clinical score compared with the no treatment group ([3]; 5 or 10 mg/kg i.p. daily from day 11~12, two-way ANOVA at least P<0.05)",neurological function ([3]; i.p. administration from day 11~12 after immunization (1~2 days after symptoms))
0.4 nM,–,–,"CN(C)C(=O)c1cncc(N2Cc3cn(Cc4ccc(F)cc4)nc3C2)n1 [Compound 155, 6-(2-(4-Fluorobenzyl)-2,6-dihydropyrrolo[3,4-c]pyrazol-5(4H)-yl)-N,N-dimethylpyrazine-2-carboxamide]",35 nM,significantly lower,greatly improves neurological function
–,7 min,< 1 min,"CN(C(=O)c1ccnc(N2Cc3cn(Cc4ccc(F)cc4)nc3C2)n1)C1CCCC1 [Compound 226, N-Cyclopentyl-2-(2-(4-fluorobenzyl)-2,6-dihydropyrrolo[3,4-c]pyrazol-5(4H)-yl)-N-methylpyrimidine-4-carboxamide]",42 nM,–,–
–,8 min,< 1 min,"CN(C(=O)c1cncc(N2Cc3cn(Cc4ccc(F)cc4)nc3C2)n1)C1CCCC1 [Compound 228, N-Cyclopentyl-6-(2-(4-fluorobenzyl)-2,6-dihydropyrrolo[3,4-c]pyrazol-5(4H)-yl)-N-methylpyrazine-2-carboxamide]",42 nM,–,–
–,–,< 1 min,"CN(C(=O)c1ccnc(N2Cc3cn(Cc4ccc(F)cc4)nc3C2)n1)C1CCCCC1 [Compound 230, N-Cyclohexyl-2-(2-(4-fluorobenzyl)-2,6-dihydropyrrolo[3,4-c]pyrazol-5(4H)-yl)-N-methylpyrimidine-4-carboxamide]",87 nM,–,–
